“And” between values parts separate entries of the source, which are not always exact repeats. Equal values may be shown once. Read-outs that look alike come from different tables or passages of the source.
T1: LIPY (Mycobacterium tuberculosis, UniProt I6Y2J4)
T1 construct: The 24 open-reading frames (ORFs) were amplified from the genomic DNA of M. tuberculosis H37Rv; 6xHis (pET200 D-TOPO N-terminal fusion) (N); made in house; host or cells: E. coli BL21 Star (DE3)
T1 sequence (I6Y2J4 1-437): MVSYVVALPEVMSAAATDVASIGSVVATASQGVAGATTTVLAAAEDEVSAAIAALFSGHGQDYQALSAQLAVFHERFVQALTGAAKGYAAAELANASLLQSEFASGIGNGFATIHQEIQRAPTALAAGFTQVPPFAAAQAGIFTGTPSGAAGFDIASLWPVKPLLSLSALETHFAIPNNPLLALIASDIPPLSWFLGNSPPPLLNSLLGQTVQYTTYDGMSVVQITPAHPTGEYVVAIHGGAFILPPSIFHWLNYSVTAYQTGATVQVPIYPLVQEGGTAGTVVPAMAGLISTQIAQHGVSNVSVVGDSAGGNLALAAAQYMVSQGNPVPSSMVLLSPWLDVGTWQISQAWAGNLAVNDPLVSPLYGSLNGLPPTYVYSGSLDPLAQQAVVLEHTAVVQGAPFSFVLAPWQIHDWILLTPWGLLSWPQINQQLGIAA


Key:
LIPY = molecular target: T1, LIPY; assay type: biochemical
[1] = assay type: biochemical, M. tuberculosis; conditions: pH 8

Molecule | Effect of salt on LIPY activity (in words) (LIPY) | TG hydrolase activity [1] | also measured
[Cl-].[Cl-].[Mg+2] [MgCl2] | inhibited the activity | – | LIPY activity (triolein hydrolase) Mean ± SD (LIPY): 306.3 ± 111.1 nmol/mg/min and 219.9 ± 34.3 nmol/mg/min
CCOP(=O)(OCC)Oc1ccc([N+](=O)[O-])cc1 [E-600, diethyl-p-nitrophenyl phosphate, reference compound] | – | – | Inhibition of LIPY activity (LIPY; 0.5 µM): 99.5%
[Ca+2].[Cl-].[Cl-] [CaCl2] | inhibited | – | –
polyethylene glycol tert-octylphenyl ether [Triton X-100, reference compound] | – | – | Effect of detergent on LIPY lipase activity (LIPY; 0.1%): stimulated the activity; Effect of detergent on LIPY lipase activity (LIPY; concentrations higher than 0.1%): inhibitory
CCCCCCCCCCCC(=O)OCCOCCOCCOCCOCCOCCOCCOCCOCCOCCOCCOCCOCCOCCOCCOCCOCCOCCOCCOCCOCC(OCCOCCOCCOCCOCCOCCOCCOCCOCCOCCOCCOCCOCCOCCOCCOCCOCCOCCOCCOCCO)C1OCC(OCCOCCOCCOCCOCCOCCOCCOCCOCCOCCOCCOCCOCCOCCOCCOCCOCCOCCOCCOCCO)C1OCCOCCOCCOCCOCCOCCOCCOCCOCCOCCOCCOCCOCCOCCOCCOCCOCCOCCOCCOCCO (stereo not drawn) [Tween-20, polyethylene glycol sorbitan monolaurate, reference compound] | – | – | Effect of detergent on LIPY lipase activity (LIPY; all concentrations from 0.1-2.0%): inhibited
CCCCCCCCCCCCOS(=O)(=O)[O-].[Na+] [SDS, sodium dodecyl sulfate, reference compound] | – | – | Effect of detergent on LIPY lipase activity (LIPY; concentrations above 2 mM): severely inhibited; Effect of detergent on LIPY lipase activity (LIPY; concentrations up to 2 mM): stimulated slightly
[Cl-].[Cl-].[Zn+2] [ZnCl2] | inhibited the activity | – | –
CC(=O)[O-].[K+] [CH3COO.K, potassium acetate] | enhanced the activity | – | LIPY activity (triolein hydrolase) Mean ± SD (LIPY): 692.6 ± 57.0 nmol/mg/min and 749.0 ± 73.3 nmol/mg/min
[Cl-].[Na+] [NaCl] | enhanced the activity | – | LIPY activity (triolein hydrolase) Mean ± SD (LIPY): 681.3 ± 87.2 nmol/mg/min
[Cl-].[Cl-].[Co+2] [CoCl2] | inhibited the activity | – | –
CC(=O)[O-].[Na+] [CH3COO.Na, sodium acetate] | enhanced the activity | – | LIPY activity (triolein hydrolase) Mean ± SD (LIPY): 681.7 ± 80.3 nmol/mg/min and 729.3 ± 96.5 nmol/mg/min
[Cl-].[K+] [KCl] | enhanced the activity | – | LIPY activity (triolein hydrolase) Mean ± SD (LIPY): 675.2 ± 103.5 nmol/mg/min and 686.8 ± 68.8 nmol/mg/min
[Cl][Mn][Cl] [MnCl2] | inhibited the activity | – | –
LIPM: M. tuberculosis putative lipase/esterase gene product expressed in E. coli (protein, UniProt Q50681 1-431, looked up, expressed in E. coli) Probable carboxylic ester …: MGAPRLIHVIRQIGALVVAAVTAAATINAYRPLARNGFASLWSWFIGLVVTEFPLPTLASQLGGLVLTAQRLTRPVRAVSWLVAAFSALGLLNLSRAGRQADAQLTAALDSGLGPDRRTASAGLWRRPAGGGTAKTPGPLRMLRIYRDYAHDGDISYGEYGRANHLDIWRRPDLDLTGTAPVLFQIPGGAWTTGNKRGQAHPLMSHLAELGWICVAINYRHSPRNTWPDHIIDVKRALAWVKAHISEYGGDPDFIAITGGSAGGHLSSLAALTPNDPRFQPGFEEADTRVQAAVPFYGVYDFTRLQDAMHPMMLPLLERMVVKQPRTANMQSYLDASPVTHISADAPPFFVLHGRNDSLVPVQQARGFVDQLRQVSKQPVVYAELPFTQHAFDLLGSARAAHTAIAVEQFLAEVYATQHAGSEPGPAVAIP | – | 0.02 nmol/mg/min | –
LIPN: M. tuberculosis putative lipase/esterase gene product expressed in E. coli (protein, UniProt P95125 1-376, looked up, expressed in E. coli) Carboxylic ester hydrolase …: MTKSLPGVADLRLGANHPRMWTRRVQGTVVNVGVKVLPWIPTPAKRILSAGRSVIIDGNTLDPTLQLMLSTSRIFGVDGLAVDDDIVASRAHMRAICEAMPGPQIHVDVTDLSIPGPAGEIPARHYRPSGGGATPLLVFYHGGGWTLGDLDTHDALCRLTCRDADIQVLSIDYRLAPEHPAPAAVEDAYAAFVWAHEHASDEFGALPGRVAVGGDSAGGNLSAVVCQLARDKARYEGGPTPVLQWLLYPRTDFTAQTRSMGLFGNGFLLTKRDIDWFHTQYLRDSDVDPADPRLSPLLAESLSGLAPALIAVAGFDPLRDEGESYAKALRAAGTAVDLRYLGSLTHGFLNLFQLGGGSAAGTNELISALRAHLSRV | – | 0 nmol/mg/min | –
LIPL: M. tuberculosis putative lipase/esterase gene product expressed in E. coli (protein, UniProt P71778 1-429, looked up) Esterase/beta-lactamase LipL: MMVDTGVDHRAVSSHDGPDAGRRVFGAADPRFACVVRAFASMFPGRRFGGGALAVYLDGQPVVDVWKGWADRAGWVPWSADSAPMVFSATKGMTATVIHRLADRGLIDYEAPVAEYWPAFGANGKATLTVRDVMRHQAGLSGLRGATQQDLLDHVVMEERLAAAVPGRLLGKSAYHALTFGWLMSGLARAVTGKDMRLLFREELAEPLDTDGLHLGRPPADAPTRVAEIIMPQDIAANAVLTCAMRRLAHRFSGGFRSMYFPGAIAAVQGEAPLLDAEIPAANGVATARALARMYGAIANGGEIDGIRFLSRELVTGLTRNRRQVLPDRNLLVPLNFHLGYHGMPIGNVMPGFGHVGLGGSIGWTDPETGVAFALVHNRLLSPLVMTDHAGFVGIYHLIRQAAAQARKRGYQPVTPFGAPYSEPGAAAG | – | 3.4 nmol/mg/min | –
LIPI: M. tuberculosis putative lipase/esterase gene product expressed in E. coli (protein, UniProt P71668 1-320, looked up, expressed in E. coli) Esterase LipI: MPSLDNTADEKPAIDPILLKVLDAVPFRLSIDDGIEAVRQRLRDLPRQPVHPELRVVDLAIDGPAGPIGTRIYWPPTCPDQAEAPVVLYFHGGGFVMGDLDTHDGTCRQHAVGADAIVVSVDYRLAPEHPYPAAIEDAWAATRWVAEHGRQVGADLGRIAVAGDSAGGTIAAVIAQRARDMGGPPIVFQLLWYPSTLWDQSLPSLAENADAPILDVKAIAAFSRWYAGEIDLHNPPAPMAPGRAENLADLPPAYIAVAGYDPLRDDGIRYGELLAAAGVPVEVHNAQTLVHGYVGYAGVVPAATEATNRGLVALRVVLHG | – | 0 nmol/mg/min | –
LIPC: M. tuberculosis putative lipase/esterase gene product expressed in E. coli (protein, UniProt P96402 1-403, looked up) Esterase LipC: MNQRRAAGSTGVAYIRWLLRARPADYMLALSVAGGSLPVVGKHLKPLGGVTAIGVWGARHASDFLSATAKDLLTPGINEVRRRDRASTQEVSVAALRGIVSPDDLAVEWPAPERTPPVCGALRHRRYVHRRRVLYGDDPAQLLDVWRRKDMPTKPAPVLIFVPGGAWVHGSRAIQGYAVLSRLAAQGWVCLSIDYRVAPHHRWPRHILDVKTAIAWARANVDKFGGDRNFIAVAGCSAGGHLSALAGLTANDPQYQAELPEGSDTSVDAVVGIYGRYDWEDRSTPERARFVDFLERVVVQRTIDRHPEVFRDASPIQRVTRNAPPFLVIHGSRDCVIPVEQARSFVERLRAVSRSQVGYLELPGAGHGFDLLDGARTGPTAHAIALFLNQVHRSRAQFAKEVI | – | 3.3 nmol/mg/min | –
LIPQ: M. tuberculosis putative lipase/esterase gene product expressed in E. coli (protein, UniProt I6Y9F7 1-421, looked up) Esterase LipQ: MHIASVTSRCSRAGAEALRQGAQLAADARDTCRAGALLLRGSPCAIGWVAGWLSAEFPARVVTGHALSRISPRSIGRFGTSWAAQRADQILHAALVDAFGPDFRDLVWHPTGEQSEAARRSGLLNLPHIPGPHRRYAAQTSDIPYGPGGRENLLDIWRRPDLAPGRRAPVLIQVPGGAWTINGKRPQAYPLMSRMVELGWICVSINYSKSPRCTWPAHIVDVKRAIAWVRENIADYGGDPDFITITGGSAGAHLAALAALSANDPALQPGFESADTAVQAAAPYYGVYDLTNAENMHEMMMPFLEHFVMRSRYVDNPGLFKAASPISYVHSEAPPFFVLHGEKDPMVPSAQSRAFSAALRDAGAATVSYAELPNAHHAFDLAATVRSRMVAEAVSDFLGVIYGRRMGARKGSLALSSPPAS | – | 0.11 nmol/mg/min | –
LIPJ: M. tuberculosis putative lipase/esterase gene product expressed in E. coli (protein, UniProt O07732 1-462, looked up, expressed in E. coli) Bifunctional lipase/adenylate …: MAQAPHIHRTRYAKCGDMDIAYQVLGDGPTDLLVLPGPFVPIDSIDDEPSLYRFHRRLASFSRVIRLDHRGVGLSSRLAAITTLGPKFWAQDAIAVMDAVGCEQATIFAPSFHAMNGLVLAADYPERVRSLIVVNGSARPLWAPDYPVGAQVRRADPFLTVALEPDAVERGFDVLSIVAPTVAGDDVFRAWWDLAGNRAGPPSIARAVSKVIAEADVRDVLGHIEAPTLILHRVGSTYIPVGHGRYLAEHIAGSRLVELPGTDTLYWVGDTGPMLDEIEEFITGVRGGADAERMLATIMFTDIVGSTQHAAALGDDRWRDLLDNHDTIVCHEIQRFGGREVNTAGDGFVATFTSPSAAIACADDIVDAVAALGIEVRIGIHAGEVEVRDASHGTDVAGVAVHIGARVCALAGPSEVLVSSTVRDIVAGSRHRFAERGEQELKGVPGRWRLCVLMRDDATRTR | – | 0.04 nmol/mg/min | –

— patent publication US7601357B2 (priority 2005, dated 2009)
